Test results as given in patent US20090264289A1, “Use of Arylcarboxylic Acid Biphenylamides for Seed Treatment” (BASF SE, priority 2006, published 2009).

How the values were obtained:
Format in all cases: in vivo
Puccinia recondita [1] = test: Activity against Puccinia recondita on wheat (solution pipetted to seedlings in vermiculite); details: inoculated 7 days after treatment, 7 days incubation, control 80
Protocol: (§1) Activity Against Puccinia recondita on Wheat The active compounds were formulated as a stock solution in acetone at a concentration of 10 000 ppm. The stock solution was diluted with water to the stated active compound concentration. 1 ml of the respective solution was pipetted to wheat seedlings grown in vermiculite (10 to 12 seedlings per pot). 7 days after the treatment the wheat plants were inoculated with a spore suspension of Puccinia recondita. After 7 days of incubation, the extent of infection was determined visually in %. The concentration is given in g of active compound (g a.i.) per 100 kg of seeds.

Erysiphe graminis = test: Activity against Erysiphe graminis on wheat (solution pipetted to seedlings in vermiculite); details: inoculated 7 days after treatment, 7 days incubation, control 80
Protocol: as §1, with “Erysiphe graminis” for “Puccinia recondita”, “Erysiphe graminis.” for “Puccinia recondita.”

Septoria tritici [2] = test: Activity against Septoria tritici on wheat (seedlings treated, detached leaf portions on agar inoculated); details: wheat seedlings in vermiculite, leaf portions on agar inoculated 7 days after treatment, 18° C., 18 days incubation, control 100
Protocol: Activity Against Septoria tritici on Wheat The active compound Ia.1 was formulated as a stock solution in acetone at a concentration of 10 000 ppm. The stock solution was diluted with water to the stated active compound concentration. 1 ml of the respective solution was pipetted to wheat seedlings grown in vermiculite (10 to 12 seedlings per pot). 7 days after the treatment leaf portions of 5 cm length were placed in petri dishes filled with aqueous agar. The leaf portions were then inoculated with a spore suspension of Septoria tritici. The closed Petri dishes were incubated in a climatized test cabinet at 18° C. and 12 h light exposure per day. After 18 days of incubation, the extent of infection was determined visually in %. The concentration is given in g of active compound (g a.i.) per 100 kg of seeds.

Puccinia recondita [3] = test: Activity against Puccinia recondita on wheat (seed treatment); details: 250 g a.i./100 kg seeds, inoculated 14 days after sowing, 7 days incubation, control 90
Protocol: Activity Against Puccinia recondita on Wheat (Seed Treatment) 24 mg of the active compounds listed in table 2 were in each case dissolved in 1 ml of acetone to give a stock solution. The stock solution was diluted with acetone to give the test solution. Aliquots of 4.8 g of wheat seeds were placed in glass vials, where they were treated in an air stream with 1 ml of the test solution containing the active compound. In each case, 10 grains were sown in pots of 8 cm diameter. Untreated grains served as control. […] After 7 days of incubation, the extent of infection was determined visually in %. The concentration is given in g of active compound (g a.i.) per 100 kg of seeds.

Phakopsora pachyrhizi [4] = test: Activity against Phakopsora pachyrhizi on soybean (seed treatment); details: inoculated 14 days after sowing, 10 days incubation, control 87
Protocol: Activity Against Phakopsora pachyrhizi on soybean (Seed Treatment)
16 mg of the active compounds listed in table 3 were in each case dissolved in 1 ml of acetone to give a stock solution. The stock solution was diluted with acetone to give the test solution. Aliquots of 1.5 g of soybean seeds were placed in glass vials, where they were treated in an air stream with 0.6 ml of the test solution containing the active compound. In each case, 8 grains were sown in pots of 8 cm diameter. Untreated grains served as control. 14 days after sowing, the soybean plants were inoculated with a spore suspension of Phakopsora pachyrhizi. After 10 days of incubation, the extent of infection was determined visually in %. The concentration is given in g of active compound (g a.i.) per 100 kg of seeds.

Septoria tritici [5] = test: Activity against Septoria tritici on wheat (solution pipetted to seedlings in vermiculite); details: inoculated 7 days after treatment, 18 days incubation, control 60
Protocol: as §1, with “Against Septoria tritici” for “Against Puccinia recondita”, “active compound Ia.1 was” for “active compounds were”, “in dimethyl sulfoxide” for “in acetone”, “of Septoria tritici.” for “of Puccinia recondita.”, “After 18” for “After 7”

Phakopsora pachyrhizi [6] = test: Activity against Phakopsora pachyrhizi on soybean (solution pipetted to seedlings in vermiculite); details: 250 g a.i./100 kg, inoculated 7 days after treatment, 14 days incubation, control 88
Protocol: Activity Against Phakopsora pachyrhizi on Soybean
The active compounds were formulated as a stock solution in dimethylsulfoxide at a concentration of 10 000 ppm. The stock solution was diluted with water to the stated active compound concentration. 1 ml of the respective solution was pipetted to soybean seedlings grown in vermiculite (1 seedling per pot). 7 days after the treatment the soybean plants were inoculated with a spore suspension of Phakopsora pachyrhizi. After 14 days of incubation, the extent of infection was determined visually in %. The concentration is given in g of active compound (g a.i.) per 100 kg of seeds.

Septoria tritici [7] = test: Activity against Septoria tritici on wheat (seed treatment); details: inoculated 14 days after sowing, 24 days incubation, control 85
Protocol: Activity Against Septoria tritici on Wheat (Seed Treatment) 9.6 mg of the active compound Ia.90 was dissolved in 1 ml of acetone to give a stock solution. The stock solution was diluted with acetone to give the test solution. Aliquots of 4.8 g of wheat seeds were placed in glass vials, where they were treated in an air stream with 0.5 ml of the test solution containing the active compound. In each case, 10 grains were sown in pots of 8 cm diameter. Untreated grains served as control. 14 days after sowing, the wheat plants were inoculated with a spore suspension of Septoria tritici. After 24 days of incubation, the extent of infection was determined visually in %. The concentration is given in g of active compound (g a.i.) per 100 kg of seeds.

SMILES	Infected leaf area (Puccinia recondita [1]; 125 g a.i./100 kg) [%]	Infected leaf area (Puccinia recondita [1]; 250 g a.i./100 kg) [%]	Infected leaf area (Erysiphe graminis; 125 g a.i./100 kg) [%]	Infected leaf area (Erysiphe graminis; 250 g a.i./100 kg) [%]	Infected leaf area (Septoria tritici [2]; 125 g a.i./100 kg) [%]	Infected leaf area (Septoria tritici [2]; 250 g a.i./100 kg) [%]	also measured
Cn1cc(C(=O)Nc2ccccc2-c2cc(Cl)cc(Cl)c2)c(C(F)F)n1 [Ia.43]	0	0	2	0			
Cn1cc(C(=O)Nc2ccccc2-c2ccc(F)c(Cl)c2)c(C(F)F)n1 [Ia.44]	0	0					
Cn1cc(C(=O)Nc2ccccc2-c2ccc(F)c(F)c2)c(C(F)F)n1 [Ia.45]	0	0					
Cn1cc(C(=O)Nc2ccccc2-c2ccc(Cl)cc2F)c(C(F)(F)F)n1 [Ia.57]	0	0					
Cn1cc(C(=O)Nc2ccccc2-c2cccc(C(F)(F)F)c2)c(C(F)(F)F)n1 [Ia.64]	0	0					
Cc1cc(-c2ccccc2NC(=O)c2cn(C)nc2C(F)(F)F)c(F)cc1Cl [Ia.84]	0	0	0	0	3	3	
Cn1cc(C(=O)Nc2ccccc2-c2cc(F)c(F)c(F)c2)c(C(F)(F)F)n1 [Ia.85]	0	0	0	0	0	0	Infected leaf area (Puccinia recondita [3]): 11%
Cn1cc(C(=O)Nc2ccccc2-c2cc(F)c(F)c(F)c2)c(C(F)F)n1 [Ia.90]	2	1	0	0	7	3	Infected leaf area (Phakopsora pachyrhizi [4]; 125 g a.i./100 kg seeds): 1%; Infected leaf area (Phakopsora pachyrhizi [4]; 250 g a.i./100 kg seeds): 2%; Infected leaf area (Septoria tritici [5]; 125 g a.i./100 kg): 0%; Infected leaf area (Septoria tritici [5]; 250 g a.i./100 kg): 0%; Infected leaf area (Puccinia recondita [3]): 0%; Infected leaf area (Phakopsora pachyrhizi [6]): 0%; Infected leaf area (Septoria tritici [7]; 25 g a.i./100 kg seeds): 1%; Infected leaf area (Septoria tritici [7]; 50 g a.i./100 kg seeds): 0%; Infected leaf area (Septoria tritici [7]; 100 g a.i./100 kg seeds): 0%
Cn1cc(C(=O)Nc2ccc(F)cc2-c2ccc(Cl)c(Cl)c2)c(C(F)F)n1 [Ia.110]			0	0	3	7	Infected leaf area (Phakopsora pachyrhizi [6]): 17%
Cn1cc(C(=O)Nc2ccccc2-c2ccc(SC(F)(F)F)cc2)c(C(F)(F)F)n1 [Ia.173]	0	0	0	0			
Cn1cc(C(=O)Nc2ccccc2-c2cc(F)c(F)c(F)c2)c(C(F)Cl)n1 (stereo not shown) [Ia.211]	0	0	0	0			Infected leaf area (Phakopsora pachyrhizi [6]): 3%
Cc1nn(C)c(Cl)c1C(=O)Nc1ccccc1-c1ccc(C(F)(F)F)cc1 [Ia.219]	8	6					
Cn1cc(C(=O)Nc2ccccc2-c2cccc(Cl)c2)c(CF)n1 [Ia.230]	0	0					
Cn1cc(C(=O)Nc2ccccc2-c2cccc(Cl)c2)c(C(F)F)n1 [Ia.231]	0	0					
Cn1cc(C(=O)Nc2ccccc2-c2ccccc2Cl)c(C(F)F)n1 [Ia.233]	2	0			7	0	
Cn1cc(C(=O)Nc2ccccc2-c2cc(F)cc(F)c2)c(C(F)F)n1 [Ia.244]	0	0					
Cn1cc(C(=O)Nc2ccccc2-c2cc(F)cc(F)c2)c(C(F)(F)F)n1 [Ia.245]	0	0	0	0	0	0	Infected leaf area (Puccinia recondita [3]): 19%; Infected leaf area (Phakopsora pachyrhizi [6]): 0%
Cn1cc(C(=O)Nc2c(F)cccc2-c2ccc(F)c(Cl)c2)c(C(F)F)n1 [Ia.249]	0	0					
Cn1cc(C(=O)Nc2ccccc2-c2cc(F)cc(Cl)c2)c(C(F)F)n1 [Ia.250]	0	0					
Cn1cc(C(=O)Nc2ccccc2-c2cc(F)cc(Cl)c2)c(C(F)(F)F)n1 [Ia.251]	0	0					
Cn1cc(C(=O)Nc2ccccc2-c2cc(Cl)ccc2Cl)c(C(F)(F)F)n1 [Ia.255]	0	0	0	0	3	3	Infected leaf area (Puccinia recondita [3]): 38%
Cn1cc(C(=O)Nc2ccccc2-c2ccc(SC(F)(F)F)cc2)c(C(F)F)n1 [Ia.313]	0	0	0	0	0	0	
O=C(Nc1ccccc1-c1ccc(Cl)cc1)c1cccnc1Cl [Id.1]							Infected leaf area (Phakopsora pachyrhizi [6]): 40%
O=C(Nc1ccccc1-c1ccc(OC(F)(F)F)cc1)c1cccnc1Cl [Id.55]	0	0					
O=C(Nc1ccccc1-c1ccc(OC(F)(F)C(F)F)cc1)c1cccnc1Cl [Id.56]	0	0					
O=C(Nc1ccccc1-c1ccc(SC(F)(F)F)cc1)c1cccnc1Cl [Id.58]	13	13					
